The source made the active and inactive calls.
Legend:
[1] = biological target: T1, Oxysterols receptor LXR-beta (Homo sapiens, UniProt P55055); type: functional, cell-based;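 also: agonist activity at LXR measured by a cell-based luminescence readout across a dose range, run as a counterscreen for daf-12 agonists; HEK293 cells with Gal4-LXR fusion and GAL4-driven luciferase reporter; potency for activation of Gal4-LXR reporter so compounds are agonists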
T1 sequence (P55055 whole entry): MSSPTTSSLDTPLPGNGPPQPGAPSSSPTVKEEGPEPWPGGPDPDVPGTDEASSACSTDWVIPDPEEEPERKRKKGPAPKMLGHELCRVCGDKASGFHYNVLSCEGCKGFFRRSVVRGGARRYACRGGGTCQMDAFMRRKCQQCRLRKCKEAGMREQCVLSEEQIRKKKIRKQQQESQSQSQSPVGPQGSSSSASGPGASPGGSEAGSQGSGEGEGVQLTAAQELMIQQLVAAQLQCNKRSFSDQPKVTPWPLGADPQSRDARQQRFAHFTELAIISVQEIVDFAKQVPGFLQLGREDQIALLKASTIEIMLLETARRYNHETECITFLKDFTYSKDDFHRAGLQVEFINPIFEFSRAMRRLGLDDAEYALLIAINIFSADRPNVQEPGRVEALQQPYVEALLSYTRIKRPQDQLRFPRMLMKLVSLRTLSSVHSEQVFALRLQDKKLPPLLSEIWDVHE

Nonstructural protein 1 = Nonstructural protein 1 (Influenza A virus, UniProt Q194T2); type: functional, Influenza A virus (A/California/07/2009(H1N1))
Sequence of Nonstructural protein 1 (Q194T2 whole entry): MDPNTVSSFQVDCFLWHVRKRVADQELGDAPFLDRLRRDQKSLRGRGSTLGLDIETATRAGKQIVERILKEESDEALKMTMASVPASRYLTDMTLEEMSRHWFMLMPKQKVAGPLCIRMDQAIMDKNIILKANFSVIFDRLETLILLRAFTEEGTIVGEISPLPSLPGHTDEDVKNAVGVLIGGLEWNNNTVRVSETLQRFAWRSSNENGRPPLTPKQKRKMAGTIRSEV

[2] = biological target: T2, Short transient receptor potential channel 4 (Mus musculus, UniProt Q9QUQ5); test: calcium entry via TRPC4 opening agents – cell-based, HEK293 TRPC4/mu-opioid, Fluo-4 calcium, dose response (AID 434937); type: functional
T2 sequence (Q9QUQ5 whole entry): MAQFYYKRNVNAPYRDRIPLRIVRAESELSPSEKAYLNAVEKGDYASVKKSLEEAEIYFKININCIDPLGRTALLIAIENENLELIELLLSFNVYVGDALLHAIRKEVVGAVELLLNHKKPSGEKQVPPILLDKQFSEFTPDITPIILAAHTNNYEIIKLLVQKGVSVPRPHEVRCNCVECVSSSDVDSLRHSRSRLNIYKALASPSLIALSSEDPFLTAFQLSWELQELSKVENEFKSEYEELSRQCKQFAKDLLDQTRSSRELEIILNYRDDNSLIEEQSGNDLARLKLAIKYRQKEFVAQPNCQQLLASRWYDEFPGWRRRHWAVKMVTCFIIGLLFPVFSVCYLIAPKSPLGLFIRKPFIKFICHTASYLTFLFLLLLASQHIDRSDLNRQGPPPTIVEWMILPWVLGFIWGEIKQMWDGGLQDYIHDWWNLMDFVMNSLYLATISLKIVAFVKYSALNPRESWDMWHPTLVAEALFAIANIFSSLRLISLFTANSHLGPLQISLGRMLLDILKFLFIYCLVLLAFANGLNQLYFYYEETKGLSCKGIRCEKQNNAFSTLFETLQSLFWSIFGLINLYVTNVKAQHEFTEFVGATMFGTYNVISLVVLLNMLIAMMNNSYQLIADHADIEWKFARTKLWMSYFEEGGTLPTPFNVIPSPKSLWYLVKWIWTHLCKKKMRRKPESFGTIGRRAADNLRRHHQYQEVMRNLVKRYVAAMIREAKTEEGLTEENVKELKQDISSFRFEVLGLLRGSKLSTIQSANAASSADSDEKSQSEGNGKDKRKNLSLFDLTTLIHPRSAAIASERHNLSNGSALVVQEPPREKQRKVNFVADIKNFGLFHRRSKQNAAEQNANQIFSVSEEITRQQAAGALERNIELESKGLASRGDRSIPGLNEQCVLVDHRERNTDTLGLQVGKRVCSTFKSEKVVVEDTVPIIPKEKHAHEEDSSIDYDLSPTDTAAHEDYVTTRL

[3] = HGIII-sPLA2 enzyme inhibition potency – biochemical, QFRET, IC50, dose response (AID 743457);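 also: green fluorescence rise as the enzyme cleaves BODIPY PC-A2 in liposomes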
fMet-Leu-Phe receptor = biological target: T3, fMet-Leu-Phe receptor (Homo sapiens, UniProt P21462); test: formyl peptide receptor binders – dose response (AID 519); type: functional
T3 sequence (P21462 whole entry): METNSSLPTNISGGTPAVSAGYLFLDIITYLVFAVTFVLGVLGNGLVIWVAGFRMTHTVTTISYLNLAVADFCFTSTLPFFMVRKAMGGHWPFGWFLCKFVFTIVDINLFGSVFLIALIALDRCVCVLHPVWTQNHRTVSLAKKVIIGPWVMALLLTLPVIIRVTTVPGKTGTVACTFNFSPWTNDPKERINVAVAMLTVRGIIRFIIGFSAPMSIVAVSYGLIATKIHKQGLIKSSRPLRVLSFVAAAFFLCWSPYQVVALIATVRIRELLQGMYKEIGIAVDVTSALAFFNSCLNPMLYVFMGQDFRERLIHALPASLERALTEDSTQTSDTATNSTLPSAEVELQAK

[4] = biological target: T4, Rac GTPase-activating protein 1 (Homo sapiens, UniProt Q9H0H5); test: blockers of MgcRacGAP-driven Rac1 GTP hydrolysis – biochemical, ADP Hunter fluorescence, primary and confirmatory, confirmation (AID 624330); type: functional
T4 sequence (Q9H0H5 whole entry): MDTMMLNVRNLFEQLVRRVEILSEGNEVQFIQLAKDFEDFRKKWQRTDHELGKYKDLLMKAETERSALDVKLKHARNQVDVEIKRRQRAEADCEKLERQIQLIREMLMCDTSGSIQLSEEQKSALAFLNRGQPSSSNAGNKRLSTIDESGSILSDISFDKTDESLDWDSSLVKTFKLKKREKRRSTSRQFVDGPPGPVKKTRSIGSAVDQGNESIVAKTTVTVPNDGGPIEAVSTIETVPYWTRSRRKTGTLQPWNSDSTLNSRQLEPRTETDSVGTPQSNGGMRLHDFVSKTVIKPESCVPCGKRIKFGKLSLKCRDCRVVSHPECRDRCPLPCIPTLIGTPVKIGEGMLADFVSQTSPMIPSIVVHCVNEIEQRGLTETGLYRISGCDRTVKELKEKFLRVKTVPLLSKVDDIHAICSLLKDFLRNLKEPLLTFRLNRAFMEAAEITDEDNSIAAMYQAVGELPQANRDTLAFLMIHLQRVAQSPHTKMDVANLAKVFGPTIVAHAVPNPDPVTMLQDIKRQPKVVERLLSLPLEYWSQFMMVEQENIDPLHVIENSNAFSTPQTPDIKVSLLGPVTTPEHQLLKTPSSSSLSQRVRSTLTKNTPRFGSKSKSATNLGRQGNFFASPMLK

[5] = Luminescence Cell-Based Dose Confirmation HTS to Identify Inhibitors of Platelet Dense Granule Release. [Related pubchem assays: 1663 (Primary HTS), 1678 (Summary of Project)]; type: functional
[6] = biological target: Luciferin 4-monooxygenase (Photinus pyralis, UniProt P08659); test: inhibition of purified Photinus pyralis luciferase – biochemical, luminescence, dose response (AID 1891)
Sequence of Luciferin 4-monooxygenase (P08659 whole entry): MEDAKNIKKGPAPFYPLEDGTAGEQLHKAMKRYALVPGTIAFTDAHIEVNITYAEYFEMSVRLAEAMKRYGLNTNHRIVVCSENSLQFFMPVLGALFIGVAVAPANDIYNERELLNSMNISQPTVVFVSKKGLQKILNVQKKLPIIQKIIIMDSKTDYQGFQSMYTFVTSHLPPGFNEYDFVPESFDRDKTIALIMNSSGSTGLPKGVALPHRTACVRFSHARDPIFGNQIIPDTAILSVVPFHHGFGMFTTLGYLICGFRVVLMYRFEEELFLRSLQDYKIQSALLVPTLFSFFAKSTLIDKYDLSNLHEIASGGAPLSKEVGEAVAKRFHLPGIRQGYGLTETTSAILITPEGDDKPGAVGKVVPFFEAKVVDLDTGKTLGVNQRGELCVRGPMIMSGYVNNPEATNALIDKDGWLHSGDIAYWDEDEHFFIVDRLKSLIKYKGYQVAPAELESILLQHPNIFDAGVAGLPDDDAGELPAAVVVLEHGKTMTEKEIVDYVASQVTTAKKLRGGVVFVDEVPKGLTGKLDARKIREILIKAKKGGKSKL

[7] = cytotoxicity in MITF-independent A375 cells – cell-based, CellTiter-Glo luminescence, dry powder, set 4, counter-screen for MITF inhibitor project, dose response (AID 624364); type: functional; conditions: A-375;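 also: A375 melanoma cells are MITF independent so this is a counter screen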
[8] = viability loss in MITF-independent A375 cells – cell-based, CellTiter-Glo luminescence, dry powder, set 2, counter-screen for MITF inhibitor project, dose response (AID 624489); type: functional; conditions: A-375;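 also: actives are compounds lowering A375 viability meaning general cytotoxicity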
[9] = P. falciparum Dd2 growth inhibitors, dose response, SYBR Green, cherry-picked samples (AID 1159567); type: functional, cell-based
[10] = toxicity to human hepatoma HepG2 cells – cell-based, cherry-picked samples, cytotoxicity control, dose response (AID 1159577); type: functional
[11] = Dd2 malaria parasite growth inhibition potency – SYBR Green, dry powder samples, dose response (AID 1159566); type: functional, cell-based;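 also: potency for growth inhibition with lower SYBR green DNA signal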
[12] = growth inhibition of PfATP4-mutant resistant parasites – NITD609-resistant line, SYBR Green, dry powder, dose response (AID 1159571); type: functional, cell-based;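 also: parasites synchronized at ring stage by sorbitol before testing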
[13] = growth inhibition of yeast DHODH-expressing 3D7 parasites – SYBR Green, dry powder samples, dose response (AID 1159570); type: functional, cell-based;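 also: parasite growth measured after 72 hours of compound exposure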
[14] = cytotoxicity toward MDA-MB-231 breast cancer cells – cell-based, CellTiter-Glo luminescence, cherry-pick, cytotoxicity control for RAD54 inhibitor project, dose response (AID 651692); type: functional
[15] = Luminescence Cell-Based Dose Retest to Confirm Inhibitors of Cancer Stem Cells. [Related pubchem assays (depositor defined):AID2717, AID2721]; type: functional; conditions: Homo sapiens
[16] = THP-1 cell cytotoxicity, dose response, cytotoxicity control for non-replicating M. tuberculosis project (AID 489025); type: functional
cells = type: functional
[17] = HepG2 cell cytotoxicity, dose response, cytotoxicity control for non-replicating M. tuberculosis project (AID 489018); type: functional; conditions: Mycobacterium tuberculosis
[18] = microbe, parasite or virus in culture; type: functional; conditions: Mycobacterium tuberculosis
Mu-type opioid receptor = Mu-type opioid receptor (Homo sapiens, UniProt P35372); type: functional, cell-based;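 also: U2OS cells with beta-arrestin recruitment to OPRM1 by beta-gal complementation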
Sequence of Mu-type opioid receptor (P35372 whole entry): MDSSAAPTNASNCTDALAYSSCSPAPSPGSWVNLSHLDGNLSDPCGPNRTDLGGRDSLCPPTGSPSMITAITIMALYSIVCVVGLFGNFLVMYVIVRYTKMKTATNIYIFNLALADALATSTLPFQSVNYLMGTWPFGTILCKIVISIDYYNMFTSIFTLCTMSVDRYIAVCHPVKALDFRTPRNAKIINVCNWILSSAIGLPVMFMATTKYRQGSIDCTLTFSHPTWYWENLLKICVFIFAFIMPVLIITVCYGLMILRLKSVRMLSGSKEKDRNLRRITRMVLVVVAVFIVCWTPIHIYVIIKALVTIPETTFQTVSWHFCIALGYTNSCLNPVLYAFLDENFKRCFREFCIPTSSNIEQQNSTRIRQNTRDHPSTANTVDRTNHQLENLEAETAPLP

[19] = biological target: T5, DNA repair protein RAD52 homolog (Homo sapiens, UniProt P43351); type: functional, biochemical
T5 sequence (P43351 whole entry): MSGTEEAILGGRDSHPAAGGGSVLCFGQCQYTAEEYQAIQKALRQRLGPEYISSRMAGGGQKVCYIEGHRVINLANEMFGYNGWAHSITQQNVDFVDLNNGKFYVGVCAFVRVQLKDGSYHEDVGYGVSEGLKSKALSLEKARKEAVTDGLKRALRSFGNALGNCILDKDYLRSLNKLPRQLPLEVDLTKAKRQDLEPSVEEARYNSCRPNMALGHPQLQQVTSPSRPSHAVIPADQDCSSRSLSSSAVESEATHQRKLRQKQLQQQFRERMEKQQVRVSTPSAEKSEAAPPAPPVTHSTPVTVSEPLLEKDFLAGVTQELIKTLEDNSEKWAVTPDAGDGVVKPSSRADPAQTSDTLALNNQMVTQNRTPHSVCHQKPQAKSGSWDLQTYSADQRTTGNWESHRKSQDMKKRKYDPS

[20] = biological target: T6, DNA repair and recombination protein RAD54-like (Homo sapiens, UniProt Q92698); test: RAD54 Holliday junction migration blockers – biochemical, fluorescence, cherry-picked samples, dose series, confirmation (AID 651657); type: functional
T6 sequence (Q92698 whole entry): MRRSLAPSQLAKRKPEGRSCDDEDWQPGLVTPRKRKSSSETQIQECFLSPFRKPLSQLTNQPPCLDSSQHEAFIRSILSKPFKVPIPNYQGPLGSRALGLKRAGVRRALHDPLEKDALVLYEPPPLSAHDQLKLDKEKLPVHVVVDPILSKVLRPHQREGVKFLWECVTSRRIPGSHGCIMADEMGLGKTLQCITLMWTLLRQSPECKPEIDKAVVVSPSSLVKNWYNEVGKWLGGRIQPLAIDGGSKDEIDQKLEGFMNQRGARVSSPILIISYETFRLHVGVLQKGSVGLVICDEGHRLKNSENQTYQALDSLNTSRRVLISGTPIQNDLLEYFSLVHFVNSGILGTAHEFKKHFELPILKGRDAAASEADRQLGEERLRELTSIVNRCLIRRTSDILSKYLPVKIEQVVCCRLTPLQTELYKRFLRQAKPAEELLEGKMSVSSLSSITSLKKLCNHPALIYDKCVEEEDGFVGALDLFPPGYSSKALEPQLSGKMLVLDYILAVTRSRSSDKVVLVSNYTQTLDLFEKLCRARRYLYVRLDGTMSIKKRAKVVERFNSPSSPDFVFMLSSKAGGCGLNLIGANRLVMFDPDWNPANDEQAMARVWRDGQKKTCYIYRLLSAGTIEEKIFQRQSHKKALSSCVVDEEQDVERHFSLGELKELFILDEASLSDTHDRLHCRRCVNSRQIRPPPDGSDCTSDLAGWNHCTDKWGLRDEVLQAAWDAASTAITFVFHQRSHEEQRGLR

[21] = Vero E6 cell cytotoxicity, dose response, cytotoxicity control for non-replicating M. tuberculosis project, secondary assay (AID 492998); type: functional, VeroE6; conditions: Vero C1008
[22] = biological target: 5-hydroxytryptamine receptor 2A (Mus musculus, UniProt P35363); type: functional, cell-based;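 also: CHO-K1 cells with tagged receptor and beta-arrestin; agonist potency measured as compound-induced activation of the receptor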
Sequence of 5-hydroxytryptamine receptor 2A (P35363 whole entry): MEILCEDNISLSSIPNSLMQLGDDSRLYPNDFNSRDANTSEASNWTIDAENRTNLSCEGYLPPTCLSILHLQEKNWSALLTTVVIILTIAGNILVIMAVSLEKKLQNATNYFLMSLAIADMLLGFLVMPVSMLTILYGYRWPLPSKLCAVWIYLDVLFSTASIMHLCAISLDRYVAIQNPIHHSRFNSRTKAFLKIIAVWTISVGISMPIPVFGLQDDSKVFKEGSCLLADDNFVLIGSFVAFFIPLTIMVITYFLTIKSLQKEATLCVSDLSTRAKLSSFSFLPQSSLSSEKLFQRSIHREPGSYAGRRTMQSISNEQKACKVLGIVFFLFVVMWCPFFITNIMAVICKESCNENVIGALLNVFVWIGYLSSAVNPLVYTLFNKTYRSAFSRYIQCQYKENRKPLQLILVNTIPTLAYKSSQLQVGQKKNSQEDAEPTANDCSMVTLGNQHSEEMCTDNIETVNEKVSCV

Structure (SMILES): Clc1ccccc1Nc1nc2ccccc2o1
- EC50 [1]: > 67.6 µM (inactive)

Structure (SMILES): c1ccc(CSc2ccc(-c3ccccn3)nn2)nc1
- EC50 [1]: > 67.5 µM (inactive)
- IC50 (Nonstructural protein 1): 4.94 µM (active)

Structure (SMILES): COc1ccc(C(=O)NC(=S)NNC(=O)c2c(-c3ccccc3)noc2C)cc1
- EC50 [2]: 3.76 µM (active)
- IC50 [3]: 24.2 µM (inactive)

Structure (SMILES): Cc1ccc(C2C(C(=O)c3cnn(-c4ccccc4)c3C)=C(O)C(=O)N2CCN2CCOCC2)o1 (stereo not given)
- Ki (fMet-Leu-Phe receptor): 23.2 µM (inactive)

Structure (SMILES): CC(=O)OCCNc1cc(N2CCN(C)CC2)c2noc3c2c1C(=O)c1ccccc1-3
- Ki (fMet-Leu-Phe receptor): > 66.7 µM (inactive)
- IC50 [4]: 117 µM (active)
- IC50 (Nonstructural protein 1): 24.1 µM (active)

Structure (SMILES): O=C(Cn1cnc2c(cnn2-c2ccc(F)cc2)c1=O)OCc1ccccc1
- Ki (fMet-Leu-Phe receptor): > 66.7 µM (inactive)
- EC50 [5]: > 112 µM (not active)
- EC50 [6]: > 112 µM (not active)

Structure (SMILES): O=C(NC1=C(N2CCSCC2)C(=O)c2ccccc2C1=O)c1ccc(Br)cc1
- AC50 [7]: > 70 µM (inactive)
- AC50 [8]: 49.9 µM (active)

Structure (SMILES): O=C1C(NS(=O)(=O)c2ccc(Br)cc2)=C(c2ccccc2)C(=O)c2ccccc21
- AC50 [7]: > 70 µM (inactive)
- AC50 [8]: > 70 µM (inactive)

Structure (SMILES): C=CCNC1=C(Nc2ccccc2)C(=O)c2ccccc2C1=O
- AC50 [7]: > 70 µM (inactive)
- AC50 [8]: > 70 µM (inactive)

Structure (SMILES): C[C@@H]1CN([C@@H](C)CO)C(=O)c2c(c3ccccc3n2C)-c2ccccc2CO[C@@H]1CN(C)Cc1ccccc1C(F)(F)F
- AC50 [9]: 1.47 µM (active)
- AC50 [10]: 8.34 µM (active)

Structure (SMILES): N#C[C@@H]1[C@H](c2ccccc2C2=CCCCC2)[C@@H](CO)N1C(=O)c1cccc(F)c1
- AC50 [11]: 1.93 µM (active)
- AC50 [9]: 2.74 µM (active)
- AC50 [12]: 7.9 µM (active)
- AC50 [13]: 2.12 µM (active)

Structure (SMILES): CCCN(CCC)CCNC(=O)c1cc2c(-c3ccc(Cl)cc3)nn(C)c2s1
- AC50 [14]: 37.1 µM (active)
- AC50 [15]: 3.81 µM (active)
- CC50 [16]: 31.6 µM (active)
- IC50 (cells): 15.5 µM (active)
- CC50 [17]: 11.8 µM (active)
- CC50 [18]: 15.1 µM (active)
- EC50 (Mu-type opioid receptor): 92.5 µM (inactive)
- AC50 [19]: 14.5 µM (active)
- AC50 [20]: 20.9 µM (active)
- CC50 [21]: 16.6 µM (active)
- EC50 [22]: 6.58 µM (active)
